Results reported in patent US8802702B2, “Compounds for reducing drug resistance and uses thereof” (The General Hospital Corporation, priority 2009, dated 2014).
Read-outs that look alike come from different tables or passages of the source.

Columns and labels:
SKOV-3TR cells = assay: Reversal of drug resistance, cytotoxicity (MTT) assay in SKOV-3TR; format: cell-based; conditions: anti-cancer drug alone, no NSC23925, read-out: SKOV-3TR IC50
Method: FIGS. 1 (a-b) are graphs that depict the effects of NSC23925 on drug sensitivity in ovarian cancer cells; 1(a) depicts the effects of NSC23925 on sensitive (SKOV-3) and resistant (SKOV-3TR) cells; 1(b) depicts the effects of NSC23925 on sensitive (OVCAR8) and resistant (OVCAR8TR) cells. […] The relative sensitivity of each line to paclitaxel was determined by MTT assay, as described below in the Examples section, 6 days post treatment. […]
Drug cytotoxicity was assessed in vitro using the MTT assay. SKOV-3 and SKOV-3TR cells were used herein. Briefly, 2×10^3 cells per well were plated in 96-well plates in culture medium (RPMI 1640 supplemented with 10% fetal bovine serum and penicillin/streptomycin) containing increasing concentrations of drug. […] The resulting formazan product was dissolved with acid-isopropanol and the absorbance at a wavelength of 490 nm (A490) was read on a SPECTRAmax® Microplate Spectrophotometer (Molecular Devices, Sunnyvale, Calif.). The absorbance values were normalized by assigning the value of the control line in the medium without drug to 1.0 and the value of the no cell control to 0. Experiments were performed in triplicate.

OVCAR8TR cells = assay: Reversal of drug resistance, cytotoxicity (MTT) assay in OVCAR8TR; format: cell-based, human; conditions: anti-cancer drug alone, no NSC23925, read-out: OVCAR8TR IC50
Method: FIGS. 1 (a-b) are graphs that depict the effects of NSC23925 on drug sensitivity in ovarian cancer cells; 1(a) depicts the effects of NSC23925 on sensitive (SKOV-3) and resistant (SKOV-3TR) cells; 1(b) depicts the effects of NSC23925 on sensitive (OVCAR8) and resistant (OVCAR8TR) cells. Cells were treated with the paclitaxel and NSC23925 in RPMI1640 complete media at the indicated concentrations. The relative sensitivity of each line to paclitaxel was determined by MTT assay, as described below in the Examples section, 6 days post treatment. A: Reversal of paclitaxel resistance by NSC23925 in SKOV-3TR cells. B: Reversal of paclitaxel resistance by NSC23925 in OVCAR8TR cells.
Drug cytotoxicity was assessed in vitro using the MTT assay. SKOV-3 and SKOV-3TR cells were used herein. Briefly, 2×10^3 cells per well were plated in 96-well plates in culture medium (RPMI 1640 supplemented with 10% fetal bovine serum and penicillin/streptomycin) containing increasing concentrations of drug. After 7 days of culture, 10 μl MTT (5 mg/ml in PBS, obtained from Sigma) were added to each well and the plates were incubated for 4 h. The resulting formazan product was dissolved with acid-isopropanol and the absorbance at a wavelength of 490 nm (A490) was read on a SPECTRAmax® Microplate Spectrophotometer (Molecular Devices, Sunnyvale, Calif.). The absorbance values were normalized by assigning the value of the control line in the medium without drug to 1.0 and the value of the no cell control to 0. Experiments were performed in triplicate.

KHOSR2 cells = assay: Reversal of drug resistance, cytotoxicity assay in KHOSR2; format: cell-based, human; conditions: anti-cancer drug alone, no NSC23925, read-out: KHOSR2 IC50
[1] = background statement; cited from earlier work

For `COc1cccc2c1C(=O)c1c(O)c3c(c(O)c1C2=O)C[C@@](O)(C(=O)CO)C[C@@H]3O[C@H]1C[C@H](N)[C@H](O)[C@H](C)O1` [Doxorubicin, reference compound], the IC50 (SKOV-3TR cells; Homo sapiens, SKOV3TR, 144 h) was 22340 ± 200 nM, the IC50 (OVCAR8TR cells; Homo sapiens, 144 h) was 27620 ± 256 nM and the IC50 (KHOSR2 cells; Homo sapiens) was 10300 ± 566 nM.

`COc1cc2c(cc1O)CCN[C@]21CS[C@@H]2c3c(OC(C)=O)c(C)c4c(c3[C@H](COC1=O)N1[C@@H]2[C@H]2c3c(cc(C)c(OC)c3O)C[C@@H]([C@@H]1O)N2C)OCO4` [ET-743, reference compound] showed an IC50 (SKOV-3TR cells; Homo sapiens, SKOV3TR, 144 h) of 4 ± 2 nM, an IC50 (OVCAR8TR cells; Homo sapiens, 144 h) of 6 ± 2 nM and an IC50 (KHOSR2 cells; Homo sapiens) of 175 ± 25 nM.

With `COc1c(C)cc2c(c1O)[C@@H]1[C@@H]3Cc4c(OC(C)=O)c(C)c5c(c4[C@H](CNC(=O)/C=C/c4cccc(C(F)(F)F)c4)N3[C@@H](O)[C@H](C2)N1C)OCO5` [PM00104, reference compound] the IC50 (SKOV-3TR cells) was 6 ± 1 nM, the IC50 (OVCAR8TR cells) was 8 ± 2 nM and the IC50 (KHOSR2 cells) was 143 ± 45 nM.

In the case of `C/C=C/C[C@@H](C)C(=O)[C@H]1C(=O)N[C@@H](C(C)C)C(=O)N(C)CC(=O)N(C)[C@@H](CC(C)C)C(=O)N[C@@H](C(C)C)C(=O)N(C)[C@@H](CC(C)C)C(=O)N[C@@H](C)C(=O)N[C@H](C)C(=O)N(C)[C@@H](CC(C)C)C(=O)N(C)[C@@H](CC(C)C)C(=O)N(C)[C@@H](C(C)C)C(=O)N1C` [PSC 833], the “Reported toxicity / side effects at doses used to modify drug resistance” value [1] is given as “cerebellar ataxia and hyperbilirubinemia toxicities”.

With `CC(=O)O[C@H]1C(=O)[C@@]2(C)[C@H]([C@H](OC(=O)c3ccccc3)[C@]3(O)C[C@H](OC(=O)[C@H](O)[C@@H](NC(=O)c4ccccc4)c4ccccc4)C(C)=C1C3(C)C)[C@]1(OC(C)=O)CO[C@@H]1C[C@@H]2O` [Paclitaxel, reference compound] the IC50 (SKOV-3TR cells; Homo sapiens, SKOV3TR, 144 h) was 310 ± 21 nM, the IC50 (OVCAR8TR cells; Homo sapiens, 144 h) was 340 ± 32 nM and the IC50 (KHOSR2 cells; Homo sapiens) was 210 ± 23 nM.
